Results on 27 compounds are retold here after patent US8648066B2 (Exelixis, Inc., priority 2009, dated 2014).

This experiment deals with mTOR/GbL/Raptor (mTORC1) (Homo sapiens, UniProt P42345). The experiment is described as follows: mTOR/GbL/Raptor (mTORC1) ELISA assay. The class given is biochemical. The settings on record: phosphorylation of 4E-BP1; 0.2 nM mTORC1, 10 μM ATP; read-out: IC50 in this assay (mTORC1 ELISA). A digest of the protocol:
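ELISA read-out: phospho-4E-BP1 captured on Ni-chelate plates and detected with anti-phospho antibody plus HRP-anti-IgG luminescence. The kinase step ran 120 min at ambient temperature with 0.2 nM human mTORC1, 10 µM ATP, 50 nM His-4E-BP1, 10 mM MnCl2, pH 7.2 HEPES.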
In general terms: An ELISA detects its analyte on a solid surface through an enzyme-linked reagent.
For the compound `COCCOc1cc(-c2ccc3c(c2)CN(c2nc(CN(C)C)nc4c2CC(C)(C)CC4)CCO3)ccc1OC` [Example 648, 1-(6,6-dimethyl-4-{7-[4-(methyloxy)-3-{[2-(methyloxy)ethyl]oxy}phenyl]-2,3-dihydro-1,4-benzoxazepin-4(5H)-yl}-5,6,7,8-tetrahydroquinazolin-2-yl)-N,N-dimethylmethanamine], the IC50 – broadly, the point on the concentration scale where inhibition reaches its midpoint – lay in the range of 250 to 1000 nM.
Take `COc1ccc(-c2ccc3c(c2)CN(c2nc(CN(C)C)nc4c2CC(C)(C)CC4)CCO3)cc1OC(F)F` [Example 649, 1-{4-[7-{3-[(difluoromethyl)oxy]-4-(methyloxy)phenyl}-2,3-dihydro-1,4-benzoxazepin-4(5H)-yl]-6,6-dimethyl-5,6,7,8-tetrahydroquinazolin-2-yl}-N,N-dimethylmethanamine]: the IC50 lay within 250 to 1000 nM.
Turning to `COc1ccc(-c2ccc3c(c2)CN(c2nc(CN(C)C)nc4c2CC(C)(C)CC4)CCO3)cc1C(C)=O` [Example 650, 1-[5-(4-{2-[(dimethylamino)methyl]-6,6-dimethyl-5,6,7,8-tetrahydroquinazolin-4-yl}-2,3,4,5-tetrahydro-1,4-benzoxazepin-7-yl)-2-(methyloxy)phenyl]ethanone], the IC50 lay within 50 to 250 nM.
In the case of `Cc1nc(N)nc(N2CCOc3ccc(-c4ccc5[nH]cnc5c4)cc3C2)c1Cc1ccc(F)cc1` [Example 651, 4-[7-(1H-benzimidazol-5-yl)-2,3-dihydro-1,4-benzoxazepin-4(5H)-yl]-5-[(4-fluorophenyl)methyl]-6-methylpyrimidin-2-amine], the IC50 was at most 10 nM.
In the case of `COc1ccc(-c2ccc3c(c2)CN(c2nc(CN(C)C)nc4c2CC(C)(C)CC4)CCO3)cc1S(C)(=O)=O` [Example 652, 1-(6,6-dimethyl-4-{7-[4-(methyloxy)-3-(methylsulfonyl)phenyl]-2,3-dihydro-1,4-benzoxazepin-4(5H)-yl}-5,6,7,8-tetrahydroquinazolin-2-yl)-N,N-dimethylmethanamine], the IC50 was 250 to 1000 nM.
The result for `CCCc1c(C)nc(CN(C)C)nc1N1CCOc2ccc(-c3ccc4nc(C)[nH]c4c3)cc2C1` [Example 653, N,N-dimethyl-1-{4-methyl-6-[7-(2-methyl-1H-benzimidazol-6-yl)-2,3-dihydro-1,4-benzoxazepin-4(5H)-yl]-5-propylpyrimidin-2-yl}methanamine] reads 250 to 1000 nM.
Under `C=CCc1c(C)nc(CN(C)C)nc1N1CCOc2ccc(-c3ccc4nc(C)[nH]c4c3)cc2C1` [Example 654, N,N-dimethyl-1-{4-methyl-6-[7-(2-methyl-1H-benzimidazol-6-yl)-2,3-dihydro-1,4-benzoxazepin-4(5H)-yl]-5-prop-2-en-1-ylpyrimidin-2-yl}methanamine] stands 50 to 250 nM; under `Cc1nc2cc(-c3ccc4c(c3)CN(c3nc(CN(C)C)nc(C)c3CC(C)C)CCO4)ccc2[nH]1` [Example 655, N,N-dimethyl-1-{4-methyl-6-[7-(2-methyl-1H-benzimidazol-5-yl)-2,3-dihydro-1,4-benzoxazepin-4(5H)-yl]-5-(2-methylpropyl)pyrimidin-2-yl}methanamine], 250 to 1000 nM.
Take `COc1ccc(-c2ccc3c(c2)CN(c2nc(CN(C)C)nc(C)c2C(C)C)CCO3)cc1NS(C)(=O)=O` [Example 656, N-[5-(4-{2-[(dimethylamino)methyl]-6-methyl-5-(1-methylethyl)pyrimidin-4-yl}-2,3,4,5-tetrahydro-1,4-benzoxazepin-7-yl)-2-(methyloxy)phenyl]methane-sulfonamide]: the IC50 lay in the range of 250 to 1000 nM.
Under `CCCc1c(C)nc(CN(C)C)nc1N1CCOc2ccc(-c3cnc4sc(N)nc4c3)cc2C1` [Example 657, 6-(4-{2-[(dimethylamino)methyl]-6-methyl-5-propylpyrimidin-4-yl}-2,3,4,5-tetrahydro-1,4-benzoxazepin-7-yl)[1,3]thiazolo[5,4-b]pyridin-2-amine] stands 50 to 250 nM.
Turning to `COc1ccc2c(N3CCOc4ccc(-c5ccc6[nH]cnc6c5)cc4C3)nc(CN(C)C)nc2c1` [Example 658, 1-{4-[7-(1H-benzimidazol-5-yl)-2,3-dihydro-1,4-benzoxazepin-4(5H)-yl]-7-(methyloxy)quinazolin-2-yl}-N,N-dimethylmethanamine], the IC50 was at least 2000 nM.
Under `COc1ccc2c(N3CCOc4ccc(-c5ccc6[nH]c(C)nc6c5)cc4C3)nc(CN(C)C)nc2c1` [Example 659, N,N-dimethyl-1-{4-[7-(2-methyl-1H-benzimidazol-5-yl)-2,3-dihydro-1,4-benzxazepin-4(5H)-yl]-7-(methyloxy)quinazolin-2-yl}methanamine] stands 250 to 1000 nM; under `COc1ccc2c(N3CCOc4ccc(-c5cnc6sc(N)nc6c5)cc4C3)nc(C)nc2c1` [Example 661, 6-{4-[2-methyl-7-(methyloxy)quinazolin-4-yl]-2,3,4,5-tetrahydro-1,4-benzoxazepin-7-yl}[1,3]thiazolo[5,4-b]pyridin-2-amine], 250 to 1000 nM.
The result for `CCc1c(C)nc(CN(C)C)nc1N1CCOc2ccc(-c3cnc4sc(N)nc4c3)cc2C1` [Example 662, 6-(4-{2-[(dimethylamino)methyl]-5-ethyl-6-methylpyrimidin-4-yl}-2,3,4,5-tetrahydro-1,4-benzoxazepin-7-yl)[1,3]thiazolo[5,4-b]pyridin-2-amine] reads 50 to 250 nM; that for `Cc1nc(CN(C)C)nc(N2CCOc3ccc(-c4cnc5sc(N)nc5c4)cc3C2)c1CC1CC1` [Example 663, 6-(4-{5-(cyclopropylmethyl)-2-[(dimethylamino)methyl]-6-methylpyrimidin-4-yl}-2,3,4,5-tetrahydro-1,4-benzoxazepin-7-yl)[1,3]thiazolo[5,4-b]pyridin-2-amine], 50 to 250 nM.
Regarding `COCCc1c(C)nc(CN(C)C)nc1N1CCOc2ccc(-c3ccc4nc(C)[nH]c4c3)cc2C1` [Example 664, N,N-dimethyl-1-{4-methyl-6-[7-(2-methyl-1H-benzimidazol-6-yl)-2,3-dihydro-1,4-benzoxazepin-4(5H)-yl]-5-[2-(methyloxy)ethyl]pyrimidin-2-yl}methanamine], the IC50 was in the range of 250 to 1000 nM.
Take `Cc1nc(CN(C)C)nc(N2CCOc3ccc(-c4cnc5sc(N)nc5c4)cc3C2)c1CC(C)C` [Example 665, 6-(4-{2-[(dimethylamino)methyl]-6-methyl-5-(2-methylpropyl)pyrimidin-4-yl}-2,3,4,5-tetrahydro-1,4-benzoxazepin-7-yl)[1,3]thiazolo[5,4-b]pyridin-2-amine]: the IC50 was in the range of 10 to 50 nM.
The result for `Cc1nc2cc(-c3ccc4c(c3)CN(c3nc(CN(C)C)nc(C)c3Br)CCO4)ccc2[nH]1` [Example 666, 1-{5-bromo-4-methyl-6-[7-(2-methyl-1H-benzimidazol-5-yl)-2,3-dihydro-1,4-benzoxazepin-4(5H)-yl]pyrimidin-2-yl}-N,N-dimethylmethanamine] reads at least 2000 nM; that for `COCCc1c(C)nc(CN(C)C)nc1N1CCOc2ccc(-c3cnc4sc(N)nc4c3)cc2C1` [Example 667, 6-(4-{2-[(dimethylamino)methyl]-6-methyl-5-[2-(methyloxy)ethyl]pyrimidin-4-yl}-2,3,4,5-tetrahydro-1,4-benzoxazepin-7-yl)[1,3]thiazolo[5,4-b]pyridin-2-amine], 50 to 250 nM.
The result for `Cc1nc2cc(-c3ccc4c(c3)CN(c3nc(C(C)N)nc5c3CC(C)(C)CC5)CCO4)ccc2[nH]1` (stereo not drawn) [Example 668, 1-{6,6-dimethyl-4-[7-(2-methyl-1H-benzimidazol-5-yl)-2,3-dihydro-1,4-benzoxazepin-4(5H)-yl]-5,6,7,8-tetrahydroquinazolin-2-yl}ethanamine] reads at most 10 nM; that for `Cc1nc2c(c(N3CCOc4ccc(-c5cnc6sc(N)nc6c5)cc4C3)n1)CC(C)(C)CC2` [Example 669, 6-[4-(2,6,6-trimethyl-5,6,7,8-tetrahydroquinazolin-4-yl)-2,3,4,5-tetrahydro-1,4-benzoxazepin-7-yl][1,3]thiazolo[5,4-b]pyridin-2-amine], at most 10 nM.
In the case of `C=CCc1c(C)nc(CN(C)C)nc1N1CCOc2ccc(-c3cnc4sc(N)nc4c3)cc2C1` [Example 670, 6-(4-{2-[(dimethylamino)methyl]-6-methyl-5-prop-2-en-1-ylpyrimidin-4-yl}-2,3,4,5-tetrahyhdro-1,4-benzoxazepin-7-yl)[1,3]thiazolo[5,4-b]pyridin-2-amine], the IC50 was in the range of 10 to 50 nM.
Turning to `Cc1nc(CN(C)C)nc(N2CCOc3ccc(-c4cnc5sc(N)nc5c4)cc3C2)c1C` [Example 671, 6-(4-{2-[(dimethylamino)methyl]-5,6-dimethylpyrimidin-4-yl}-2,3,4,5-tetrahydro-1,4-benzoxazepin-7-yl)[1,3]thiazolo[5,4-b]pyridin-2-amine], the IC50 was 250 to 1000 nM.
Regarding `Cc1nc2ccc(-c3ccc4c(c3)CN(c3nc(CN(C)C)nc(C)c3C)CCO4)cc2[nH]1` [Example 672, 1-{4,5-dimethyl-6-[7-(2-methyl-1H-benzimidazol-6-yl)-2,3-dihydro-1,4-benzoxazepin-4(5H)-yl]pyrimidin-2-yl}-N,N-dimethylmethanamine], the IC50 was at least 2000 nM.
The result for `Cc1nc(CN(C)C)nc(N2CCOc3ccc(-c4cnc5sc(N)nc5c4)cc3C2)c1Br` [Example 673, 6-(4-{5-bromo-2-[(dimethylamino)methyl]-6-methylpyrimidin-4-yl}-2,3,4,5-tetrahydro-1,4-benzoxazepin-7-yl)[1,3]thiazolo[5,4-b]pyridin-2-amine] reads 250 to 1000 nM.
Under `Cc1nc(CN(C)C)nc(N2CCOc3ccc(-c4cnc5sc(N)nc5c4)cc3C2)c1C(C)C` [Example 674, 6-(4-{2-[(dimethylamino)methyl]-6-methyl-5-(1-methylethyl)pyrimidin-4-yl}-2,3,4,5-tetrahydro-1,4-benzoxazepin-7-yl)[1,3]thiazolo[5,4-b]pyridin-2-amine] stands 10 to 50 nM; under `Cc1nc2cc(-c3ccc4c(c3)CN(c3nc(CN5CCCC5)nc(C)c3C(C)C)CCO4)ccc2[nH]1` [Example 675], 50 to 250 nM.
